The test concerns the target T1, human A2a receptor (Homo sapiens, UniProt P29274).
T1 construct: purchased Perkin-Elmer RBHA2AM400UA; host or cells: HEK293 cells (membranes)
Put plainly: A2a competition binding assay, Scintillation Proximity technology. Conditions: membranes from HEK293 cells expressing human A2a receptor; Ki by Cheng-Prusoff equation. In short, it runs like this:
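Membranes from HEK293 cells expressing human A2a, adenosine deaminase-treated, incubated 1 h at room temperature with compound (3000 to 0.15 nM) and 0.5 nM tritiated pyrazolotriazolopyrimidine radioligand on WGA SPA beads in Ca/Mg-free PBS + 10 mM MgCl2. Non-specific binding with 1 μM CGS15943; Ki by Cheng-Prusoff.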

T1 sequence (P29274 whole entry): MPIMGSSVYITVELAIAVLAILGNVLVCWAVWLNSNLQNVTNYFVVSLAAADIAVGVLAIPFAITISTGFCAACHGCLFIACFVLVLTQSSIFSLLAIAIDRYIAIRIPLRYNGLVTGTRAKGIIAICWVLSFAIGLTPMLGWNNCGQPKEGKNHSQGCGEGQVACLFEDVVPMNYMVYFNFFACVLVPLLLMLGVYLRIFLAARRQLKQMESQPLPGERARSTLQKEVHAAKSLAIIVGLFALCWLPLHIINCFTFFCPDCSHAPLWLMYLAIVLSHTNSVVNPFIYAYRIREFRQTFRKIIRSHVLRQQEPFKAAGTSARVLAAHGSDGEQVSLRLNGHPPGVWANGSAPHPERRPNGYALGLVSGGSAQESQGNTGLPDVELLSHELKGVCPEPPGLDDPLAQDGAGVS

`Cc1nc(C(=O)NCc2nn(C)c3c2CCC3)c(N)nc1-c1ncco1` [Ex-174, 3-amino-6-methyl-N-[(1-methyl-1,4,5,6-tetrahydrocyclopenta[c]pyrazol-3-yl)methyl]-5-(1,3-oxazol-2-yl)pyrazine-2-carboxamide] had a Ki of 2.96 nM.
Turning to `Nc1nc(-n2nccn2)c(Cl)nc1C(=O)NCc1ccccc1C(F)(F)F` [Ex-269, 3-amino-6-chloro-5-(2H-1,2,3-triazol-2-yl)-N-[2-(trifluoromethyl)benzyl] pyrazine-2-carboxamide], the Ki was determined as 4.3 nM.
`Cc1nc(C(=O)N[C@@H]2COc3ccccc32)c(N)nc1-c1ncco1` [Ex-157, 3-amino-N-[(3S)-2,3-dihydro-1-benzofuran-3-yl]-6-methyl-5-(1,3-oxazol-2-yl)pyrazine-2-carboxamide] displayed a Ki of 0.601 nM.
As to `Cc1nc(C(=O)NC2CCCC(O)CC2)c(N)nc1-c1ncco1` (single isomer, unassigned) [Ex-165A, 3-amino-N-(4-hydroxycycloheptyl)-6-methyl-5-(1,3-oxazol-2-yl)pyrazine-2-carboxamide], affinity was put at a Ki of 13.1 nM.
Consider `COc1ccc(C)c(CNC(=O)c2nc(C)c(-c3ncco3)nc2N)n1` [Ex-80, 3-amino-N-[(6-methoxy-3-methylpyridin-2-yl)methyl]-6-methyl-5-(1,3-oxazol-2-yl)pyrazine-2-carboxamide], for which the Ki came out at 1.59 nM.
`Cc1cccnc1CNC(=O)c1nc(C)c(-n2ccnn2)nc1N` [Ex-278, 3-amino-6-methyl-N-[(3-methylpyridin-2-yl)methyl]-5-(1H-1,2,3-triazol-1-yl)pyrazine-2-carboxamide] registered a Ki of 191 nM.
`Cc1cncnc1CNC(=O)c1nc(C)c(-c2ncco2)nc1N` [Ex-175, 3-amino-6-methyl-N-[(5-methylpyrimidin-4-yl)methyl]-5-(1,3-oxazol-2-yl)pyrazine-2-carboxamide] registered a Ki of 6.31 nM.
As for `Cc1cnn(-c2nc(N)c(C(=O)NCc3cccc4cc[nH]c34)nc2Cl)c1` [Ex-352, 3-amino-6-chloro-N-(1H-indol-7-ylmethyl)-5-(4-methyl-1H-pyrazol-1-yl)pyrazine-2-carboxamide], the Ki came out at 51.1 nM.
`Cc1ccn(-c2nc(N)c(C(=O)N[C@@H]3CCc4ccccc43)nc2Cl)n1` [Ex-339, 3-amino-6-chloro-N-[(1R)-2,3-dihydro-1H-inden-1-yl]-5-(3-methyl-1H-pyrazol-1-yl)pyrazine-2-carboxamide] registered a Ki of 117 nM. This Ki is about 2.3-fold higher than that of the compound before.
Compound `Cc1nc(C(=O)NC(C)c2ccccn2)c(N)nc1-c1ncco1` (single isomer, unassigned) [Ex-82A, 3-amino-6-methyl-5-(1,3-oxazol-2-yl)-N-(1-pyridin-2-ylethyl)pyrazine-2-carboxamide] had a Ki of 2.48 nM.
`Cc1nc(C(=O)NC2CCOc3ccccc32)c(N)nc1-c1ncco1` (stereo in doubt) [Ex-146, 3-amino-N-[(4S)-3,4-dihydro-2H-chromen-4-yl]-6-methyl-5-(1,3-oxazol-2-yl)pyrazine-2-carboxamide] returned a Ki of 5.57 nM.
As for `Cc1nc(C(=O)NCc2ccc(C(F)(F)F)cn2)c(N)nc1-c1ncco1` [Ex-59, 3-amino-6-methyl-5-(1,3-oxazol-2-yl)-N-{[5-(trifluoromethyl)pyridin-2-yl]methyl}pyrazine-2-carboxamide], the inhibitory constant (Ki) came out at 14.8 nM. Against the preceding compound, the Ki is about 2.7-fold higher.
`Cc1nc(C(=O)NCCCN2CCC(F)(F)C2)c(N)nc1-c1ncco1` [Ex-113, 3-amino-N-[3-(3,3-difluoropyrrolidin-1-yl)propyl]-6-methyl-5-(1,3-oxazol-2-yl)pyrazine-2-carboxamide]: the Ki came to 30.2 nM. Compared with the last compound, the Ki is about 2-fold higher.
Consider `Cc1nc(C(=O)NCc2cccc(C(C)C)n2)c(N)nc1-c1ncco1` [Ex-85, 3-amino-6-methyl-N-{[6-(1-methylethyl)pyridin-2-yl]methyl}-5-(1,3-oxazol-2-yl)pyrazine-2-carboxamide], for which the affinity corresponds to a Ki of 0.7 nM.
Compound `Nc1nc(-n2nccn2)c(Cl)nc1C(=O)NCc1ccc(F)cc1F` [Ex-271, 3-amino-6-chloro-N-(2,4-difluorobenzyl)-5-(2H-1,2,3-triazol-2-yl)pyrazine-2-carboxamide] returned a Ki of 6.19 nM.
Take `CCc1ccc(CNC(=O)c2nc(C)c(-c3ncco3)nc2N)cc1` [Ex-139, 3-amino-N-(4-ethylbenzyl)-6-methyl-5-(1,3-oxazol-2-yl)pyrazine-2-carboxamide]: the affinity, expressed as Ki, was 3.03 nM.
Compound `C#CC[C@H]1CCC[C@H]1NC(=O)c1nc(C)c(-c2ncco2)nc1N` [Ex-208, 3-amino-6-methyl-5-(1,3-oxazol-2-yl)-N-[(1R,2R)-2-prop-2-yl-1-ylcyclopentyl]pyrazine-2-carboxamide] returned a Ki of 0.982 nM.
For `Cc1nc(C(=O)NCc2nccn2C(C)C)c(N)nc1-c1ncco1` [Ex-87, 3-amino-6-methyl-N-{[1-(1-methylethyl)-1H-imidazol-2-yl]methyl}-5-(1,3-oxazol-2-yl)pyrazine-2-carboxamide], the Ki is 0.471 nM.
Regarding `Cc1nc(C(=O)NCc2cc(C(F)(F)F)ccn2)c(N)nc1-c1ncco1` [Ex-42, 3-amino-6-methyl-5-(1,3-oxazol-2-yl)-N-{[4-(trifluoromethyl)pyridin-2-yl]methyl}pyrazine-2-carboxamide], the Ki was determined as 0.672 nM.
The compound `COc1cccnc1CNC(=O)c1nc(C)c(-c2ncco2)nc1N` [Ex-43, 3-amino-N-[(3-methoxypyridin-2-yl)methyl]-6-methyl-5-(1,3-oxazol-2-yl)pyrazine-2-carboxamide] came in with a Ki of 0.116 nM.
Turning to `Cc1nc(C(=O)NCc2ccccc2O)c(N)nc1-c1ncco1` [Ex-153, 3-amino-N-(2-hydroxybenzyl)-6-methyl-5-(1,3-oxazol-2-yl)pyrazine-2-carboxamide], the Ki stood at 0.141 nM.
Take `CCC(NC(=O)c1nc(C)c(-c2ncco2)nc1N)c1ccccn1` (single isomer, unassigned) [Ex-94A, 3-amino-6-methyl-5-(1,3-oxazol-2-yl)-N-(1-pyridin-2-ylpropyl)pyrazine-2-carboxamide]: the affinity, expressed as Ki, was 8.7 nM.
Compound `Cc1nc(C(=O)NCc2nccc(F)c2C)c(N)nc1-c1ncco1` [Ex-162, 3-amino-N-[(4-fluoro-3-methylpyridin-2-yl)methyl]-6-methyl-5-(1,3-oxazol-2-yl)pyrazine-2-carboxamide] yielded a Ki of 0.333 nM.
Take `Cc1nc(C(=O)NC2CCCc3cnccc32)c(N)nc1-c1ncco1` (single isomer, unassigned) [Ex-84A, 3-amino-6-methyl-5-(1,3-oxazol-2-yl)-N-(5,6,7,8-tetrahydroisoquinolin-5-yl)pyrazine-2-carboxamide]: affinity was put at a Ki of 280 nM.
As for `Cc1nc(C(=O)NCc2cccc3c2cnn3CC(F)F)c(N)nc1-c1ncco1` [Ex-228, 3-amino-N-{[1-(2,2-difluoroethyl)-1H-indazol-4-yl]methyl}-6-methyl-5-(1,3-oxazol-2-yl)pyrazine-2-carboxamide], the figure is 1.74 nM; as for `Cc1nc2c(o1)CN(CCNC(=O)c1nc(C)c(-c3ncco3)nc1N)CC2` [Ex-190, 3-amino-6-methyl-N-[2-(2-methyl-6,7-dihydro[1,3]oxazolo[5,4-c]pyridin-5-(4H)-yl)ethyl]-5-(1,3-oxazol-2-yl)pyrazine-2-carboxamide], 12.3 nM; as for `Cc1nc(C(=O)NCc2cc(C(F)F)nc(C(F)F)c2)c(N)nc1-c1ncco1` [Ex-75, 3-amino-N-{[2,6-bis(difluoromethyl)pyridin-4-yl]methyl}-6-methyl-5-(1,3-oxazol-2-yl)pyrazine-2-carboxamide], 40.4 nM.
As for `Cc1cnc(CNC(=O)c2nc(C)c(-c3ncco3)nc2N)nc1` [Ex-185, 3-amino-6-methyl-N-[(5-methylpyrimidin-2-yl)methyl]-5-(1,3-oxazol-2-yl)pyrazine-2-carboxamide], the figure is 4.25 nM; as for `CCn1cnc2c(CNC(=O)c3nc(C)c(-c4ncco4)nc3N)cccc21` [Ex-193, 3-amino-N-[(1-ethyl-1H-benimidazol-4-yl)methyl]-6-methyl-5-(1,3-oxazol-2-yl)pyrazine-2-carboxamide], 0.435 nM; as for `Cc1nc(C(=O)NC2CCCC2(F)F)c(N)nc1-c1ncco1` (single isomer, unassigned) [Ex-191B, 3-amino-N-(2,2-difluorocyclopentyl)-6-methyl-5-(1,3-oxazol-2-yl)pyrazine-2-carboxamide], 2.56 nM.
On to `Cc1nc(C(=O)NCc2ccccn2)c(N)nc1-c1ncco1` [Ex-51, 3-amino-6-methyl-5-(1,3-oxazol-2-yl)-N-(pyridin-2-ylmethyl)pyrazine-2-carboxamide], for which affinity was put at a Ki of 0.717 nM.
On to `Nc1nc(-n2nccn2)c(Cl)nc1C(=O)N[C@H](CO)c1ccccc1` [Ex-313, 3-amino-6-chloro-N-[(1S)-2-hydroxy-1-phenylethyl]-5-(2H-1,2,3-triazol-2-yl)pyrazine-2-carboxamide], for which the affinity, expressed as Ki, was 22.8 nM.
As for `Cc1nc(C(=O)NC2CC(O)c3cccnc32)c(N)nc1-c1ncco1` (stereo not shown) [Ex-240A, 3-amino-N-(5-hydroxy-6,7-dihydro-5H-cyclopenta[b]pyridin-7-yl)-6-methyl-5-(1,3-oxazol-2-yl)pyrazine-2-carboxamide], the affinity, expressed as Ki, was 40.5 nM.
As for `Nc1nc(-n2nccn2)c(Cl)nc1C(=O)N1CCc2cccc(Br)c2C1` [Ex-292, 3-[(8-bromo-3,4-dihydroisoquinolin-2(1H)-yl)carbonyl]-5-chloro-6-(2H-1,2,3-triazol-2-yl)pyrazin-2-amine], the figure is 54.8 nM; as for `Cc1nc(C(=O)NCc2cccc3c2ncn3C(C)C)c(N)nc1-c1ncco1` [Ex-189], 1.03 nM.
For the compound `Cc1nc(C(=O)NCc2nc3ccccc3s2)c(N)nc1-c1ncco1` [Ex-149, 3-amino-N-(1,3-benzothiazol-2-ylmethyl)-6-methyl-5-(1,3-oxazol-2-yl)pyrazine-2-carboxamide], the Ki came to 0.855 nM. This Ki and that of the compound before are within 1.5-fold of each other.
In turn, `C#C[C@H]1CCC[C@@H]1NC(=O)c1nc(C)c(-c2ncco2)nc1N` [Ex-209, 3-amino-N-[(1S,2R)-2-ethynylcyclopentyl]-6-methyl-5-(1,3-oxazol-2-yl)pyrazine-2-carboxamide] had a Ki of 2.97 nM.
